IC50 and inhibition data for 38 compounds are collected here from ChEMBL document CHEMBL6096667, “Design, synthesis and biological evaluation of biaryl amide derivatives as modulators of multi-drug resistance” (Eur J Med Chem, 2025).

Test [1] has as its system A2780/Taxol. Briefly: Inhibition of cell proliferation of human Paclitaxel-resistant A2780/T cells incubated for 48 hrs in presence of PTX by MTT assay. In kind it is functional, cell-based. (Tetrazolium assays rely on reduction of a dye to a coloured formazan, in cell work by metabolically active cells.)
For test [2], the system named is A2780/Taxol. Briefly: Inhibition of cell proliferation of human Paclitaxel-resistant A2780/T cells at 1 uM incubated for 48 hrs in presence of PTX by MTT assay relative to control. In kind it is functional.
Test [3] relates to A2780/Taxol. Briefly: Inhibition of cell proliferation of human Paclitaxel-resistant A2780/T cells at 10 uM incubated for 48 hrs in presence of PTX by MTT assay relative to control. The format is functional.
The test system of test [4] is A2780/Taxol. Briefly: Inhibition of cell proliferation of human Paclitaxel-resistant A2780/T cells at 0.01 uM incubated for 48 hrs in presence of PTX by MTT assay relative to control. The format is functional.
The subject of test [5] is A2780/Taxol. Briefly: Inhibition of cell proliferation of human Paclitaxel-resistant A2780/T cells at 0.1 uM incubated for 48 hrs in presence of PTX by MTT assay relative to control. In kind it is functional.

pIC50: −log10 of the molar value.

Usually pIC50 stands for −log10 of the IC50, conventionally taken in molar units. The inhibition is the change of the read-out against control, counted positive when it falls. For the compound `O=C(NCc1ccc(-c2ccccc2)cn1)c1cccnc1`, the pIC50 with A2780/Taxol [1] was 4.52. The inhibition at 1 µM in the test on A2780/Taxol [2] amounted to 32%. Moreover, the inhibition at 10 µM in the test with A2780/Taxol [3] is 65%.

For the compound `O=C(NCc1ccc(-c2ccccc2)cn1)c1cncnc1`, the pIC50 in the test on A2780/Taxol [1] was 4.49. Moreover, the inhibition at 1 µM with A2780/Taxol [2] worked out at 24%. The inhibition at 10 µM with A2780/Taxol [3] is 61%.

With `COc1ccc(CCN(C)CCCC(C#N)(c2ccc(OC)c(OC)c2)C(C)C)cc1OC` (stereo not given), the inhibition at 0.01 µM in the test on A2780/Taxol [4] was determined as 22%. For the same compound, the inhibition at 0.1 µM in the test with A2780/Taxol [5] was 47%. Besides, the inhibition at 1 µM in the test with A2780/Taxol [2] turned out to be 57%. Further, the inhibition at 10 µM in the test with A2780/Taxol [3] came to 76%.

As to `CCCCc1ccc(-c2ccc(CNC(=O)c3cn(C)c4ccccc34)nc2)cc1`, the pIC50 in the test on A2780/Taxol [1] was less than 4.30. The inhibition at 1 µM in the test with A2780/Taxol [2] was determined as 37%. The inhibition at 10 µM in the test with A2780/Taxol [3] was determined as 52%.

As for `O=C(Nc1ncc(-c2ccccc2)cc1O)c1cccnc1`, the inhibition at 0.01 µM in the test on A2780/Taxol [4] is 11%. The inhibition at 0.1 µM with A2780/Taxol [5] stood at 38%. The pIC50 in the test with A2780/Taxol [1] was 5.68.

On to `O=C(Nc1ccc(-c2ccccc2)cn1)c1cccnc1`, for which, in the test with A2780/Taxol [4], the inhibition at 0.01 µM was found to be 28%. The inhibition at 0.1 µM in the test with A2780/Taxol [5] is 55%. In addition, the pIC50 in the test with A2780/Taxol [1] is 6.06.

With `O=C(Nc1ncc(-c2ccccc2)cn1)c1cccnc1`, the inhibition at 0.01 µM with A2780/Taxol [4] was 34%. In addition, the inhibition at 0.1 µM in the test on A2780/Taxol [5] was 49%. Besides, the pIC50 in the test with A2780/Taxol [1] was 6.96.

`O=C(Cc1cccnc1)Nc1ccc(-c2ccccc2)cn1`: in the test with A2780/Taxol [1], the pIC50 was less than 4.30. In addition, in the test with A2780/Taxol [2], the inhibition at 1 µM was 39%. Besides, the inhibition at 10 µM in the test with A2780/Taxol [3] amounted to 34%.

Take `Cn1cccc1C(=O)NCc1ccc(-c2ccccc2)cn1`: the pIC50 with A2780/Taxol [1] is less than 4.30. For the same compound, the inhibition at 1 µM with A2780/Taxol [2] is 10%. In the test with A2780/Taxol [3], the inhibition at 10 µM came to 30%.

Turning to `O=C(Nc1ccc(-c2ccccc2)cc1OC(F)(F)F)c1cccnc1`, the inhibition at 0.01 µM with A2780/Taxol [4] was 31%. In addition, the inhibition at 0.1 µM in the test with A2780/Taxol [5] was 42%. Also, in the test on A2780/Taxol [1], the pIC50 was 5.45.

With `O=C(NCc1ccc(-c2ccccc2)cn1)c1c(F)c(F)c(F)c(F)c1F`, in the test on A2780/Taxol [1], the pIC50 is less than 4.30. Besides, in the test on A2780/Taxol [2], the inhibition at 1 µM came to 13%. Also, in the test on A2780/Taxol [3], the inhibition at 10 µM was found to be 39%.

Take `Cn1c(C(=O)NCc2ccc(-c3ccccc3)cn2)cc2ccccc21`: the pIC50 in the test with A2780/Taxol [1] was less than 4.30. Moreover, in the test with A2780/Taxol [2], the inhibition at 1 µM amounted to 11%. The inhibition at 10 µM with A2780/Taxol [3] worked out at 37%.

On to `O=C(NCc1ccc(-c2ccccc2)cn1)c1ccc(Br)nc1`, for which the negative-log IC50 (pIC50) with A2780/Taxol [1] was less than 4.30. The inhibition at 1 µM with A2780/Taxol [2] came to 12%. The inhibition at 10 µM with A2780/Taxol [3] was 37%.

For `O=C(/C=C/c1cccnc1)NCc1ccc(-c2ccccc2)cn1`, the pIC50 in the test with A2780/Taxol [1] was 4.66. Moreover, the inhibition at 1 µM with A2780/Taxol [2] was found to be 33%. In the test on A2780/Taxol [3], the inhibition at 10 µM amounted to 38%.

For the compound `O=C(NCc1ccc(-c2ccccc2)cn1)c1ccc(C(F)(F)F)nc1`, the pIC50 in the test on A2780/Taxol [1] was less than 4.30. For the same compound, the inhibition at 1 µM with A2780/Taxol [2] amounted to 9%. In addition, the inhibition at 10 µM in the test on A2780/Taxol [3] was determined as 31%.

Regarding `O=C(NCc1ccc(-c2ccccc2)cn1)c1ccc(F)c(F)c1`, the pIC50 with A2780/Taxol [1] was 4.70. Further, the inhibition at 1 µM in the test on A2780/Taxol [2] was 22%. Moreover, in the test with A2780/Taxol [3], the inhibition at 10 µM stood at 46%.

As to `Cn1cc(C(=O)NCc2ccc(-c3cccc(F)c3)cn2)c2ccccc21`, the negative logarithm of the IC50 (pIC50) in the test with A2780/Taxol [1] is less than 4.30. For the same compound, the inhibition at 1 µM with A2780/Taxol [2] came to 8%. The inhibition at 10 µM in the test with A2780/Taxol [3] came out at 33%.

Take `Cn1cc(C(=O)NCc2ccc(-c3ccc4c(c3)c3ccccc3n4-c3ccccc3)cn2)c2ccccc21`: the pIC50 with A2780/Taxol [1] was less than 4.30. The inhibition at 1 µM with A2780/Taxol [2] is 14%. In the test with A2780/Taxol [3], the inhibition at 10 µM stood at 28%.

In the case of `O=C(Nc1ccc(-c2ccccc2)nc1)c1cccnc1`, the inhibition at 0.01 µM with A2780/Taxol [4] turned out to be 9%. Also, in the test on A2780/Taxol [5], the inhibition at 0.1 µM came out at 33%. The pIC50 with A2780/Taxol [1] is 4.87.

With `O=C(Nc1ccc(-c2ccccc2)c(F)c1F)c1cccnc1`, the inhibition at 0.01 µM in the test on A2780/Taxol [4] amounted to 27%. The inhibition at 0.1 µM in the test with A2780/Taxol [5] worked out at 46%. The pIC50 in the test with A2780/Taxol [1] is 6.11.

For `Cn1cc(C(=O)NCc2ccc(-c3ccc(F)cc3)cn2)c2ccccc21`, the pIC50 in the test on A2780/Taxol [1] was less than 4.30. Also, the inhibition at 1 µM in the test on A2780/Taxol [2] was 25%. The inhibition at 10 µM with A2780/Taxol [3] came to 63%.

On to `O=C(Nc1ncc(-c2ccccc2)cc1F)c1cccnc1`, for which the inhibition at 0.01 µM in the test on A2780/Taxol [4] was 11%. In addition, the inhibition at 0.1 µM in the test with A2780/Taxol [5] was 50%. In the test on A2780/Taxol [1], the pIC50 was 6.49.

Turning to `O=C(Nc1ccc(-c2ccccc2)cc1[N+](=O)[O-])c1cccnc1`, the inhibition at 0.01 µM in the test on A2780/Taxol [4] was 48%. Also, the inhibition at 0.1 µM in the test on A2780/Taxol [5] worked out at 74%. In the test with A2780/Taxol [1], the pIC50 is 7.57.

For `O=C(Nc1ccc(-c2ccccc2)c2nonc12)c1cccnc1`, in the test on A2780/Taxol [4], the inhibition at 0.01 µM worked out at 14%. Besides, the inhibition at 0.1 µM in the test on A2780/Taxol [5] was 33%. In addition, in the test on A2780/Taxol [1], the pIC50 is 5.51.

Take `O=C(NCc1ccc(-c2ccccc2)cn1)c1ccc2cccnc2c1`: the pIC50 with A2780/Taxol [1] was 4.74. In addition, the inhibition at 1 µM in the test with A2780/Taxol [2] amounted to 31%. Also, the inhibition at 10 µM with A2780/Taxol [3] is 67%.

With `N#Cc1cc(-c2ccccc2)cnc1NC(=O)c1cccnc1`, in the test on A2780/Taxol [4], the inhibition at 0.01 µM came to 35%. Besides, in the test on A2780/Taxol [5], the inhibition at 0.1 µM turned out to be 59%. The pIC50 in the test on A2780/Taxol [1] is 7.10.

`O=C(Nc1ccc(-c2ccccc2)c2cccnc12)c1cccnc1`: the inhibition at 0.01 µM in the test on A2780/Taxol [4] is 6%. In addition, the inhibition at 0.1 µM in the test with A2780/Taxol [5] turned out to be 39%. Besides, the pIC50 in the test with A2780/Taxol [1] was 4.48.

For `O=S(=O)(Nc1ccc(-c2ccccc2)cn1)c1cccnc1`, in the test with A2780/Taxol [1], the pIC50 is 4.73. Moreover, in the test on A2780/Taxol [2], the inhibition at 1 µM worked out at 7%. In addition, in the test on A2780/Taxol [3], the inhibition at 10 µM came out at 37%.

As to `O=C(Cc1cccnc1)NCc1ccc(-c2ccccc2)cn1`, in the test on A2780/Taxol [1], the pIC50 is less than 4.30. Also, in the test on A2780/Taxol [2], the inhibition at 1 µM is 33%. The inhibition at 10 µM in the test with A2780/Taxol [3] was 42%.

Regarding `O=C(Nc1ccc(-c2ccccc2)c2ccccc12)c1cccnc1`, in the test on A2780/Taxol [4], the inhibition at 0.01 µM was found to be 31%. Besides, the inhibition at 0.1 µM in the test with A2780/Taxol [5] amounted to 35%. Besides, in the test with A2780/Taxol [1], the pIC50 is 4.72.

With `O=C(Nc1nc(-c2ccccc2)co1)c1cccnc1`, the inhibition at 0.01 µM in the test with A2780/Taxol [4] worked out at 11%. Also, the inhibition at 0.1 µM in the test with A2780/Taxol [5] is 30%. Also, in the test with A2780/Taxol [1], the pIC50 was 5.00.

On to `O=C(Nc1c(F)c(F)c(-c2ccccc2)c(F)c1F)c1cccnc1`, for which, in the test with A2780/Taxol [4], the inhibition at 0.01 µM worked out at 25%. Also, the inhibition at 0.1 µM in the test on A2780/Taxol [5] is 46%. In the test on A2780/Taxol [1], the pIC50 is 6.10.

`Cn1cc(C(=O)NCc2ccc(-c3ccco3)cn2)c2ccccc21`: in the test with A2780/Taxol [1], the pIC50 was less than 4.30. Also, the inhibition at 1 µM with A2780/Taxol [2] came to 20%. In addition, the inhibition at 10 µM in the test on A2780/Taxol [3] was found to be 32%.

Consider `O=C(Nc1ccc(-c2ccccc2)cc1)c1cccnc1`, for which, in the test with A2780/Taxol [4], the inhibition at 0.01 µM worked out at 29%. The inhibition at 0.1 µM with A2780/Taxol [5] came out at 37%. For the same compound, the negative-log IC50 (pIC50) in the test on A2780/Taxol [1] was 4.90.

In the case of `O=C(Nc1cccnc1)Nc1ccc(-c2ccccc2)cn1`, in the test with A2780/Taxol [1], the pIC50 was less than 4.30. Moreover, in the test on A2780/Taxol [2], the inhibition at 1 µM was 10%. For the same compound, the inhibition at 10 µM in the test with A2780/Taxol [3] stood at 30%.

In the case of `Cc1ccc(C(=O)NCc2ccc(-c3ccccc3)cn2)cn1`, the negative logarithm of the IC50 (pIC50) in the test on A2780/Taxol [1] is less than 4.30. Further, in the test with A2780/Taxol [2], the inhibition at 1 µM was found to be 12%. In addition, in the test on A2780/Taxol [3], the inhibition at 10 µM is 35%.

For the compound `O=C(Nc1ccc(-c2ccccc2)c([N+](=O)[O-])c1)c1cccnc1`, the inhibition at 0.01 µM in the test on A2780/Taxol [4] came to 25%. Also, the inhibition at 0.1 µM in the test with A2780/Taxol [5] stood at 37%. Besides, the negative logarithm of the IC50 (pIC50) in the test on A2780/Taxol [1] was 4.95.

Regarding `COc1cc(C(=O)NCc2ccc(-c3ccccc3)cn2)cc(OC)c1OC`, the pIC50 in the test on A2780/Taxol [1] was 4.64. Further, the inhibition at 1 µM with A2780/Taxol [2] is 10%. In the test on A2780/Taxol [3], the inhibition at 10 µM is 51%.
